pEC50: −log10 of the molar value. The source made the active and inactive calls.
Key:
[1] = target: Protein-tyrosine kinase 2-beta (Homo sapiens, UniProt Q14289);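 further: potency of inhibitors of PYK2 kinase phosphorylation of poly-GT substrate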
[2] = RKO cell viability reduction, dose response, CellTiter-Glo luminescence (AID 1117322); format: functional
[3] = cytotoxicity toward HT-29 cells – cell-based, CellTiter-Glo luminescence, IC50, dose response (AID 1117330); format: functional
[4] = rise of 4N DNA cells, HeLa – IC50, dose response (AID 1117351); format: functional, cell-based
[5] = cytotoxicity toward HCT116 cells – cell-based, CellTiter-Glo luminescence, IC50, dose response (AID 1117332); format: functional; conditions: HCT-116
[6] = Reduced DLD-1 viability, concentration-response, CellTiter-Glo luminescence (AID 1117352); format: functional
[7] = rise of 2N DNA cells, HeLa – IC50, dose response (AID 1117349); format: functional, cell-based
[8] = cytotoxicity toward Colo320 cells – cell-based, CellTiter-Glo luminescence, IC50, dose response (AID 1117334); format: functional; conditions: COLO 320
[9] = CellTiter-Glo luminescence survival assay, SW480 colon tumor line, concentration-response curve, half-maximal inhibitory concentration (AID 1117338); format: functional
[10] = HCT116 cell viability decrease, GSK3B pretreatment – CellTiter-Glo, IC50, dose response (AID 1117339); format: functional; conditions: HCT-116
[11] = SNU-C1 cell viability reduction, dose response, CellTiter-Glo luminescence (AID 1117323); format: functional, cell-based
[12] = target: T1, Tyrosine-protein phosphatase non-receptor type 7 (Homo sapiens, UniProt P35236); experiment: HePTP tyrosine phosphatase activity blockers – biochemical, absorbance, leukemia target, primary screen (AID 521); format: functional
T1 sequence (P35236 whole entry): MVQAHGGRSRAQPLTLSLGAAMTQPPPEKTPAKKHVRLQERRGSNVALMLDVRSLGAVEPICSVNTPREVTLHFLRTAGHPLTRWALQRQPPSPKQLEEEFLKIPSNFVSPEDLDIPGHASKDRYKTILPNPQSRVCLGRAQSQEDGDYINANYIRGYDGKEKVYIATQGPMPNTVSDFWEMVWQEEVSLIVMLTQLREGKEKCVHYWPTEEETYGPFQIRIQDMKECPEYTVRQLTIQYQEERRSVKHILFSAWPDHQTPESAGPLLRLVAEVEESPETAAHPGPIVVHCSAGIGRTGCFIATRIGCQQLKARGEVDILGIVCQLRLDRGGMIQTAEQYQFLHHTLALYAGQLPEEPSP

[13] = target: Voltage-gated inwardly rectifying potassium channel KCNH2 (Homo sapiens, UniProt Q12809); experiment: concentration-dependent hERG rescue from blockers – cell-based, thallium flux, dose response (AID 2121); format: ADME
cells [14] = format: functional, cell-based
Major prion protein = Major prion protein (Homo sapiens, UniProt P04156); format: functional, cell-based
cells [15] = experiment: cells
[16] = target: T2, Nuclear receptor subfamily 0 group B member 1 (Homo sapiens, UniProt P51843); format: functional, cell-based;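 further: HEK293T cells transfected with SF-1 and DAX-1 plus StAR promoter luciferase reporter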
T2 sequence (P51843 whole entry): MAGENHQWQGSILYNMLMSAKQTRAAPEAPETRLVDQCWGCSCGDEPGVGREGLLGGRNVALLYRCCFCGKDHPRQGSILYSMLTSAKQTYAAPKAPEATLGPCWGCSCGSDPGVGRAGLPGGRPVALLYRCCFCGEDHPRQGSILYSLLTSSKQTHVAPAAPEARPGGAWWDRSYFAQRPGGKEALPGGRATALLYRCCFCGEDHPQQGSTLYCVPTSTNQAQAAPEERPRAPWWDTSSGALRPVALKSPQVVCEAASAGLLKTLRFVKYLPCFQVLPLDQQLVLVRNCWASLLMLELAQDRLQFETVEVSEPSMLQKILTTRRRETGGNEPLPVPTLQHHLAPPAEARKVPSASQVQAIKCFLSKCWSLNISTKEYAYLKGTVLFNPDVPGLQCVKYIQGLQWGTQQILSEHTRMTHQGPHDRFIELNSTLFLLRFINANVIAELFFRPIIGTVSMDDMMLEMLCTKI

[17] = target: G-protein coupled receptor 55 (Homo sapiens, UniProt Q9Y2T6); experiment: inhibition of LPI-stimulated GPR55 beta-arrestin translocation – imaging, U2OS, beta-arrestin-GFP, LPI agonist, primary screen (AID 2013); format: functional;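 further: antagonist potency measured as reduced agonist-driven arrestin aggregation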
[18] = target: T3, Replicative DNA helicase DnaB (Mycobacterium tuberculosis, UniProt P9WMR3); experiment: DnaB intein splicing inhibitors, dose response, biochemical, cell-free fluorescence (AID 449749); format: functional
T3 sequence (P9WMR3 whole entry): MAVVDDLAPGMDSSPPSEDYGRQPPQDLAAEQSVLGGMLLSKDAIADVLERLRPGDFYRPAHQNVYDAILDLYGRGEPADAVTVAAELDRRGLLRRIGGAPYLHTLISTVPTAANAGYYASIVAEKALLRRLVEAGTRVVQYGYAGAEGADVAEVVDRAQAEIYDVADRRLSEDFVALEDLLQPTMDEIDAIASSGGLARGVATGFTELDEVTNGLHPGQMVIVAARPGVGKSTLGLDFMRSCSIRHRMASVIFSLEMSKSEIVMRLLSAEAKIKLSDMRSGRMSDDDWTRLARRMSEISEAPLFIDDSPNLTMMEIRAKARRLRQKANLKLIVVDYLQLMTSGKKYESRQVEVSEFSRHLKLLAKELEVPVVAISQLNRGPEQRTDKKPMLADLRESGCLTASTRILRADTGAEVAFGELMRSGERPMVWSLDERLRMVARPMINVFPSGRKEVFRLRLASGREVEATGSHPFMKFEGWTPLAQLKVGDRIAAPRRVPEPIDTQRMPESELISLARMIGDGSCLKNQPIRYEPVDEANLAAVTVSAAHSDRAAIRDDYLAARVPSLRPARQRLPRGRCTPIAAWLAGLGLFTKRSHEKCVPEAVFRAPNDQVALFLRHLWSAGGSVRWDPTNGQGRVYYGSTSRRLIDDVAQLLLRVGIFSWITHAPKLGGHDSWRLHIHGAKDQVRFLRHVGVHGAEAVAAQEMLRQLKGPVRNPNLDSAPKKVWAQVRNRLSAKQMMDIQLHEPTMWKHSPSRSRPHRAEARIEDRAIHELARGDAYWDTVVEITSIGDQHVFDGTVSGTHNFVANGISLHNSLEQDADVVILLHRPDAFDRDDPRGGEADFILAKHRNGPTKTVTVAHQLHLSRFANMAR

[19] = target: E3 ubiquitin-protein ligase Mdm2 (Homo sapiens, UniProt Q00987); experiment: MDM2-luc reporter signal enhancers, multi-concentration potency testing, MDM2 ubiquitin-protein ligase inhibitor program, whole-cell format, luminescence detection, 384-well microplate (AID 1394); format: functional;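 further: MDM2 E3 inhibitors raise luminescence so EC50 is for signal enhancement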
Protein RecA = target: T4, Protein RecA (Mycobacterium tuberculosis, UniProt P9WHJ3); experiment: Fluorescence Cell-Free Homogeneous Dose Retest to Identify Inhibitors of RecA-Intein Splicing Activity. [Related pubchem assays (depositor defined):AID2097, AID2223, AID489010, AID492950]; format: functional
T4 sequence (P9WHJ3 whole entry): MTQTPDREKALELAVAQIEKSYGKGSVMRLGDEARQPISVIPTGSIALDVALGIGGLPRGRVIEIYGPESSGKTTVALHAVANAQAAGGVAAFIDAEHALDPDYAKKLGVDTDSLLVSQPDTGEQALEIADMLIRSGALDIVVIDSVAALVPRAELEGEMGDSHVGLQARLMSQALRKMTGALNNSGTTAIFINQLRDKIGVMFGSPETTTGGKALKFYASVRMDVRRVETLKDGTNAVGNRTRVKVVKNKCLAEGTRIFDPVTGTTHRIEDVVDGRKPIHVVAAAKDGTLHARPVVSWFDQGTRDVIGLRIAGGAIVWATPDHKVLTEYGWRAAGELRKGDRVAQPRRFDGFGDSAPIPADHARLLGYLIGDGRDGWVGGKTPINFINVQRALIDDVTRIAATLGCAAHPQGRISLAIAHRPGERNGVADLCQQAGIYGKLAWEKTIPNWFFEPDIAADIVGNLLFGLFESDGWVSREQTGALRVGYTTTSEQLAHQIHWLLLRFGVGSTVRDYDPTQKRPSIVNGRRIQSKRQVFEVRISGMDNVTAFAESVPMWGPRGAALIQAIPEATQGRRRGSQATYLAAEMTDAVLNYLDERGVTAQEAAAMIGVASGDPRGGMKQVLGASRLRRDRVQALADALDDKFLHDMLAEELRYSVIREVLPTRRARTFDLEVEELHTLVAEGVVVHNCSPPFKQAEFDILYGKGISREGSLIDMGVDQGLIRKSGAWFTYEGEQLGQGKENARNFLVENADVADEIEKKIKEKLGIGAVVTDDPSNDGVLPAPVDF

[20] = target: Ubiquitin carboxyl-terminal hydrolase BAP1 (Homo sapiens, UniProt Q92560); experiment: inhibition of BAP1 ubiquitin hydrolase activity – biochemical, dose response (AID 714); format: functional
[21] = target: Metabotropic glutamate receptor 8 (Homo sapiens, UniProt O00222); experiment: Fold shift mGlu8 using GIRK assay.; format: functional
[22] = target: Metabotropic glutamate receptor 6 (Homo sapiens, UniProt O15303); experiment: off-target activity check on mGlu6 receptor – cell-based, GIRK thallium flux, agonist curve fold shift, selectivity assay for mGlu8/mGlu7 PAM project, profiling panel (AID 743421); format: functional
[23] = target: T5, Metabotropic glutamate receptor 4 (Homo sapiens, UniProt Q14833); experiment: agonist response potentiation at mGlu4 receptor – cell-based, GIRK thallium flux, mechanism study for group III mGlu PAM project, late-stage follow-up (AID 743466); format: functional
T5 sequence (Q14833 whole entry): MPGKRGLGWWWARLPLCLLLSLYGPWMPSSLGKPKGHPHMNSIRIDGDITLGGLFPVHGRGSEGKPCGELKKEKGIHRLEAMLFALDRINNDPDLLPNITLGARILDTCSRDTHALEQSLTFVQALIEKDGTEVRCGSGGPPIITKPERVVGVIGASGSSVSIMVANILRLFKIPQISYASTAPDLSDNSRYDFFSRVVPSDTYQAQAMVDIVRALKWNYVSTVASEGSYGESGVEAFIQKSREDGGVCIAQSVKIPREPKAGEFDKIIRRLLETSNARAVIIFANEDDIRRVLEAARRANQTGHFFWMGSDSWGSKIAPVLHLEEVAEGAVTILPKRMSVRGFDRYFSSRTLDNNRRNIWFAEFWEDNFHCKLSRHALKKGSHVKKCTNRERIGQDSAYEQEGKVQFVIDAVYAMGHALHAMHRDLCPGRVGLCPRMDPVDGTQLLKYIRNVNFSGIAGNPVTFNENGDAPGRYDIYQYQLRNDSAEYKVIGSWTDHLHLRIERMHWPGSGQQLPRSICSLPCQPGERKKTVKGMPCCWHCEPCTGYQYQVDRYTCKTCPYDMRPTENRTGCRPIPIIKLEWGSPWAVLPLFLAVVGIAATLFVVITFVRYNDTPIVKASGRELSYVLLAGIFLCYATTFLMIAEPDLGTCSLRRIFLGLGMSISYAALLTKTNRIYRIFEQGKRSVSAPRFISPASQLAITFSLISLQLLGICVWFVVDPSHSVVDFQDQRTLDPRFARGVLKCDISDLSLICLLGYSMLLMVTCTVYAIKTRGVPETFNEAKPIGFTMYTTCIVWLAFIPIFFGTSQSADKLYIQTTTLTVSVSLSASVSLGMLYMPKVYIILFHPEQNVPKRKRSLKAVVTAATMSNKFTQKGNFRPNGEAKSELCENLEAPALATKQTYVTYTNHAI

[24] = target: T6, Metabotropic glutamate receptor 7 (Homo sapiens, UniProt Q14831); experiment: Fold shift mGlu7 using calcium mobilization.; format: functional
T6 sequence (Q14831 whole entry): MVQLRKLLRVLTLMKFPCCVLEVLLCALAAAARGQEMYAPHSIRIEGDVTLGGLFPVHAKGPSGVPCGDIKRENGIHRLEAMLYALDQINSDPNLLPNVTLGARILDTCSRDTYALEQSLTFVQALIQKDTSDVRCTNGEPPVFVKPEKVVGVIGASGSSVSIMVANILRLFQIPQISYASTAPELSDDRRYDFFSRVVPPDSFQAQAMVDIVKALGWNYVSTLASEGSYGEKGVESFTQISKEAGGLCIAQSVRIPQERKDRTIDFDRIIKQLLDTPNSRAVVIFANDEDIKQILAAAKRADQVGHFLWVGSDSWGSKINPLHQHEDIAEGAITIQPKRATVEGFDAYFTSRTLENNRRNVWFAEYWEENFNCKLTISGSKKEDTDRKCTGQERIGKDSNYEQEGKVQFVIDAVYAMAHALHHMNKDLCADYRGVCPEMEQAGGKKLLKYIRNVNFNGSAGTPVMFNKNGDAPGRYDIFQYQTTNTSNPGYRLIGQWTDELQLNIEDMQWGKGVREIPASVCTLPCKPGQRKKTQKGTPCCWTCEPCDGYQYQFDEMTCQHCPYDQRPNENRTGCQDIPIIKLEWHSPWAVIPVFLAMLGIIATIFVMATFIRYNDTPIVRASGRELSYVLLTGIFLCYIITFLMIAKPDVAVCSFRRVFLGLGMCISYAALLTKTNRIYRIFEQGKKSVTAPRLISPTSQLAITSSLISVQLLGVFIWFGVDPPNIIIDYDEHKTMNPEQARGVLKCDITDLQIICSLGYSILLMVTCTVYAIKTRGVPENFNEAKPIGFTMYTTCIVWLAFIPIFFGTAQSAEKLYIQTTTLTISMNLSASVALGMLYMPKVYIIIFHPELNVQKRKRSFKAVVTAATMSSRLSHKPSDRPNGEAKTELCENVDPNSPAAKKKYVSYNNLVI

[25] = target: T6, Metabotropic glutamate receptor 7; experiment: glutamate curve shift by mGlu7 potentiators, cell-based, rat, GIRK per title (AID 743386); format: functional
[26] = target: Metabotropic glutamate receptor 2 (Homo sapiens, UniProt Q14416); experiment: off-target activity check on mGlu2 receptor – cell-based, GIRK thallium flux, agonist curve fold shift, selectivity assay for mGlu8/mGlu7 PAM project, profiling panel (AID 743433); format: functional
Chain of Metabotropic glutamate receptor 2 (Q14416 whole entry): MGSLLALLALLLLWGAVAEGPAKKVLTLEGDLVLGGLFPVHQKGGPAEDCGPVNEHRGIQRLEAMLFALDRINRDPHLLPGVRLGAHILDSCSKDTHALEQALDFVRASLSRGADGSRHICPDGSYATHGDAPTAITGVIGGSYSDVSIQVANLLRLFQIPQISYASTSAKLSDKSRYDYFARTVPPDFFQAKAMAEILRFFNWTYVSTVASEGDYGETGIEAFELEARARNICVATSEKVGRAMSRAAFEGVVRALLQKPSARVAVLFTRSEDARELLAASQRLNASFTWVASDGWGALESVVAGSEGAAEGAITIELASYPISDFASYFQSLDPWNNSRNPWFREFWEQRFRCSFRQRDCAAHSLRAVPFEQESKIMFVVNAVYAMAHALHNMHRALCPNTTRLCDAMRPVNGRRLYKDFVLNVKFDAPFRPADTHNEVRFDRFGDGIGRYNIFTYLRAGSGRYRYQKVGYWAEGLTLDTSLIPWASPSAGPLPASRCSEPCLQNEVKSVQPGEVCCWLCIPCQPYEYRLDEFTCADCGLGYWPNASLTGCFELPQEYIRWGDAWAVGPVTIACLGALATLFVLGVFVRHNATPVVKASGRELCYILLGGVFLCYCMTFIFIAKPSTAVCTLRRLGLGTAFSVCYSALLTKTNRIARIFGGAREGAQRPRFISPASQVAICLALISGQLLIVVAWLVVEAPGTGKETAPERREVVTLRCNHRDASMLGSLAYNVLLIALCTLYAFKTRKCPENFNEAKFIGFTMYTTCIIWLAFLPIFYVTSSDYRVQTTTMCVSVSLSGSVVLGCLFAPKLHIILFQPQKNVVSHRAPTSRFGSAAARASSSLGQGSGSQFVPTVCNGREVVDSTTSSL

[27] = target: T5, Metabotropic glutamate receptor 4; experiment: Fold shift mGlu4, mGlu7, mGlu8 using calcium mobilization.; format: functional
[28] = target: Metabotropic glutamate receptor 5 (Homo sapiens, UniProt P41594); experiment: off-target activity check on mGlu5 receptor – cell-based, calcium fluorescence, glutamate curve fold shift, selectivity assay for mGlu8/mGlu7 PAM project, profiling panel (AID 743419); format: functional
Chain of Metabotropic glutamate receptor 5 (P41594 whole entry): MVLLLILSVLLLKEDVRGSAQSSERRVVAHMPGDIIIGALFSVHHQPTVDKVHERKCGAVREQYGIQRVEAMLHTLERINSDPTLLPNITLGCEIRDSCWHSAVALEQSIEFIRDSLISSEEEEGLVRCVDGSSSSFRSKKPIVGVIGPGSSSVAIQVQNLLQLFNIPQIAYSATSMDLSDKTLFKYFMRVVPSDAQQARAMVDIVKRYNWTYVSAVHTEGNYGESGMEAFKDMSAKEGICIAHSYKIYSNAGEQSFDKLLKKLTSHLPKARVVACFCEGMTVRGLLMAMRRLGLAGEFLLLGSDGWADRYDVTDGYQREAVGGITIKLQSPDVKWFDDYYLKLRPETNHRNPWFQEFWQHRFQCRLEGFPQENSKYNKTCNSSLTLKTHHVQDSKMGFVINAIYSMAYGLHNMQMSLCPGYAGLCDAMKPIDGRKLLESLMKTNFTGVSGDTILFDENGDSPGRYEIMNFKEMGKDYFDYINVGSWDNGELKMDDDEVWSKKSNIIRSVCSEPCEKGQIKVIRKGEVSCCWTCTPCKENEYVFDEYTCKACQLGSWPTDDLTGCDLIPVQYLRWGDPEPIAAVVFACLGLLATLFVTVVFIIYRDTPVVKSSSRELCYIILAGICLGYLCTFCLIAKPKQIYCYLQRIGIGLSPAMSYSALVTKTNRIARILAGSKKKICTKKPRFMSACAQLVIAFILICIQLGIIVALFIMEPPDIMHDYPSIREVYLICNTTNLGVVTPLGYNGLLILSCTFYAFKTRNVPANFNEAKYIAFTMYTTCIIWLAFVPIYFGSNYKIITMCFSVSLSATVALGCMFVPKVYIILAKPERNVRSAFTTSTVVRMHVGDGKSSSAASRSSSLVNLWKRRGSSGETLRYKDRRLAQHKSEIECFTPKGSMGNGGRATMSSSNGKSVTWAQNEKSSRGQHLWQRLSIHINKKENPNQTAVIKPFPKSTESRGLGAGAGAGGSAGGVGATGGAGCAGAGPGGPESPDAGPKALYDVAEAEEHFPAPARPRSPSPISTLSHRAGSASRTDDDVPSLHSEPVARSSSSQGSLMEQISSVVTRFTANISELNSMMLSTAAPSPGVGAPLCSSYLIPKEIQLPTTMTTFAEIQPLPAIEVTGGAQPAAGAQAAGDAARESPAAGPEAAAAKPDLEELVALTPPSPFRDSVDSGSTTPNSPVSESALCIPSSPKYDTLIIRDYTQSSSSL

[29] = target: Metabotropic glutamate receptor 3 (Homo sapiens, UniProt Q14832); experiment: Selectivity Studies of mglur8 probe at mglur3.; format: functional
Chain of Metabotropic glutamate receptor 3 (Q14832 whole entry): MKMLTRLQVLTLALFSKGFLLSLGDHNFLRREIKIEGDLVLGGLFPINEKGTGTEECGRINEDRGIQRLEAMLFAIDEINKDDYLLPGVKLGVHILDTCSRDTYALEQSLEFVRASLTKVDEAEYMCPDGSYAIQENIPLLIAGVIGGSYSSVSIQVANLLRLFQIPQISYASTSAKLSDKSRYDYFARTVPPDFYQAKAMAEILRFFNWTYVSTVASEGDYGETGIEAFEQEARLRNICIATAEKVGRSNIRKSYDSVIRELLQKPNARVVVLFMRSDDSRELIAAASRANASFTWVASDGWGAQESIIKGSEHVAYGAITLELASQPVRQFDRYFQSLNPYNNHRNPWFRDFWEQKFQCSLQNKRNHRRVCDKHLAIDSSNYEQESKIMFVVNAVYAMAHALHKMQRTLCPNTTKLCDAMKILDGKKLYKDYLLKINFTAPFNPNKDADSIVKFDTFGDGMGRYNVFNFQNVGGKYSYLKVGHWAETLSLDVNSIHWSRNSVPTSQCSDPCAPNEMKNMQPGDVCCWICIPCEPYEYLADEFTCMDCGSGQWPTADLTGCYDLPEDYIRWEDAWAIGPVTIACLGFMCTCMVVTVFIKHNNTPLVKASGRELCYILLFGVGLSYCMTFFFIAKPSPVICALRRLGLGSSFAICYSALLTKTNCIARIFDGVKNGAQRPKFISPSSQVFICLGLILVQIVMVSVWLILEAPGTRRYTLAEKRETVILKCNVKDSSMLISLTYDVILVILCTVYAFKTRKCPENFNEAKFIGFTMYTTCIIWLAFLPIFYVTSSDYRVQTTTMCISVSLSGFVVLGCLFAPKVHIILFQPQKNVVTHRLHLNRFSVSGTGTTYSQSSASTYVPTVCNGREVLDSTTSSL

[30] = target: Diphosphomevalonate decarboxylase (Streptococcus pneumoniae serotype 2 (strain D39 / NCTC 7466), UniProt Q9FD53); experiment: diphosphomevalonate decarboxylase inhibitor confirmation – biochemical, cuvette format, coupled NADH fluorescence (AID 1028); format: functional
[31] = target: Mitogen-activated protein kinase 10 (Homo sapiens, UniProt P53779); experiment: Dose response biochemical screening assay for inhibitors of c-Jun N-Terminal Kinase 3 (JNK3). [Related pubchem assays: 746 ]
Protein Tat = Protein Tat (Human immunodeficiency virus type 1 group M subtype B (isolate HXB2)(HIV-1), UniProt P04608); format: functional;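 further: tat binding to TAR RNA read out by fluorescence polarization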
Chain of Protein Tat (P04608 whole entry): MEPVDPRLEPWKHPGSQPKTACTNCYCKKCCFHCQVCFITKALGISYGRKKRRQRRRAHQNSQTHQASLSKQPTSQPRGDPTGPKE

[32] = viability loss in Vero cells – cytotoxicity control for Vif-APOBEC3G degradation inhibitor project, dose response (AID 1117358); format: functional; conditions: Vero
[33] = target: E3 ubiquitin-protein ligase UHRF1 (Homo sapiens, UniProt Q96T88); experiment: Counterscreen for inhibitors of 5-meCpG-binding domain protein 2 (MBD2): TRFRET-based biochemical high throughput dose response assay to identify inhibitors of binding of ubiquitin-like with PHD and ring finger domains 1 (UHRF1) to methylated oligonucleotide.
[34] = target: G-protein coupled receptor 183 (Homo sapiens, UniProt P32249); experiment: SAR confirmation of small molecule antagonists of the EBI2 receptor via a luminescent beta-arrestin assa.; format: functional
cells [35] = conditions: HEK293
[36] = toxicity to A549 lung cells – cell-based, plate reader, dry powder, set 6, cytotoxicity control, dose response (AID 743312); format: functional

O=C(OCCN=C1NS(=O)(=O)c2ccccc21)c1cccnc1
IC50 [1]: > 69.5 µM (not active)

Cc1nc2ccc(CN(C)c3ccc(C(=O)N[C@@H](CCC(=O)O)C(=O)O)s3)cc2c(=O)[nH]1
IC50 [2]: 0.00288 µM (active)
IC50 [3]: > 20 µM (inactive)
IC50 [4]: > 10 µM (inactive)
IC50 [5]: 0.00424 µM (active)
IC50 [6]: > 20 µM (inactive)
IC50 [7]: > 10 µM (inactive)
IC50 [8]: > 20 µM (inactive)
IC50 [9]: 0.001 µM (active)
IC50 [10]: 0.0023 µM (active)
IC50 [11]: > 20 µM (inactive)

Cc1cnn(C(=S)NCc2ccc(Cl)cc2)c1
IC50 [12]: > 100 µM (not active)

O=C(COc1ccc2ccccc2c1Br)Nc1cccnc1
EC50 [13]: 0.24 µM (active)
IC50 (cells [14]): > 67.5 µM (inactive)
IC50 (Major prion protein): 5.81 µM (active)
IC50 (cells [15]): > 138 µM (inactive)
IC50 [16]: > 67.5 µM (inactive)

CN(C(=O)c1cccc(COc2ccc(Cl)cc2Cl)c1)c1ccccc1
IC50 [17]: 2.2 µM (active)
AC50 [18]: 10.6 µM (active)
EC50 [19]: 0.16 µM (active)
EC50 (Protein RecA): 7.59 µM (active)

CCCCn1c2c(c3ccccc31)CCc1nonc1-2
IC50 [20]: > 50 µM (not active)

COC(=O)c1ccc(-n2c(C)cc(C(=O)CSc3ccc(NC(C)=O)cc3)c2C)cc1
pEC50 [21]: 6.14
EC50 [22]: 0.39 µM (active)
EC50 [23]: 4.1 µM (inactive)
EC50 [24]: 16.2 µM (active)
EC50 [25]: 28.4 µM (active)
EC50 [26]: 0.37 µM (inactive)
EC50 [27]: 1.78 µM (active)
EC50 [28]: 0.35 µM (inactive)
EC50 [29]: 0.18 µM (inactive)

CCCNC(=O)c1ccccc1-n1sc2ccccc2c1=O
IC50 [30]: 31.3 µM (active)

COc1ccc(C(=O)NCc2nc3ccccc3[nH]2)cc1OC
IC50 [31]: 23.2 µM (not active)

CN1CCc2nc3ccc(Cl)cc3c(-c3ccccc3Cl)c2C1
IC50 (Protein Tat): > 100 µM (active)
CC50 [32]: > 40 µM (active)

CC(=O)Nc1sc2c(c1-c1nc3ccccc3s1)CCN(C)C2
IC50 [33]: 25.7 µM (inactive)

O=C(/C=C/c1ccc(Br)cc1)N1CCN(Cc2cc(F)cc(F)c2)CC1
IC50 [34]: 0.00221 µM (active)

Cc1cccc(OCCn2c(=S)[nH]c3ccc(C(F)(F)F)cc32)c1
AC50 (cells [35]): 35.9 µM (active)
AC50 [36]: 15.6 µM (active)
